Test results from patent publication US12509451B2, “Heteroaryl amide inhibitors of CD38” (NAPA THERAPEUTICS LTD., priority 2020, dated 2025).
pIC50: −log10 of the molar value.

Tests used:
[1] = target: T1, CD38 NAD+ hydrolase activity in NH7-dCas9 cells (Jurkat clone) (Homo sapiens, UniProt P28907); assay: Fluorescence-based NAD+ hydrolase activity assay with human T cell line NH7-dCas9 cells-Jurkat clone (Assay 1); conditions: read-out: Assay 1 Arithmetic mean IC50
T1 construct: The assay utilized CD38 expressing NH7-dCas9 cells (Jurkat clone); host or cells: NH7-dCas9 cells (Jurkat clone)
T1 sequence (P28907 1-300): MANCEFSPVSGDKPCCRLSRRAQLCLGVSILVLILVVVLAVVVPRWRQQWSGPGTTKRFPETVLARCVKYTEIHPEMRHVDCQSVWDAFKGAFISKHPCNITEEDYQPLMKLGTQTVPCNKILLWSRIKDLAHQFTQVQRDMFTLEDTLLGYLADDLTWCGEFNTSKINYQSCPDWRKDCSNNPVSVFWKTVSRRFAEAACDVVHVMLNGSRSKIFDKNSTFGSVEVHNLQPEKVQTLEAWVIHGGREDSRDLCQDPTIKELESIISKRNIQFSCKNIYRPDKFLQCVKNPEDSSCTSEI
Protocol: For the modified assay, the performance validation criteria of the assay as a High Throughput Screening (HTS): Z-factor within the plate was greater than 0.89 (optimal HTS z-factor >0.5) and the Intra-plate, inter-plate and day to day variability (CV) was less than 20%.
NAD+ hydrolase activity of a human T cell line treated with test compounds was measured using a fluorescence-based assay. NH7-dCas9 cells (Jurkat clone) were provided by the Weissman Lab (UCSF 1700 4th St., Byers Hall, Room 403B, San Francisco, CA 94158-2330). Briefly, cells were centrifuged, resuspended in 44 μl PBS/10^6 cells and plated in a 96 well black plate (CORNING) at a density of 1×10^6 per well.
Each test compound was received in a powder state and dissolved in DMSO as a 25 mM stock solution. Each test compound was serially diluted in order to generate a dose-response curve. The dilution series of each test compound in DMSO was prepared at 50 times the concentrations to be assayed. Each test compound was diluted to generate a 5-fold dilution series of 8 concentrations from 20 μM to 0.256 nM in order to assay 8 final concentrations ranging from 400 nM to 25.6 pM. One μl of the 50× concentration compound series was added to each well of the plate containing 1×10^6 cells in PBS.
Each plate had the following intra plate controls: 3 wells containing cells treated with vehicle only (DMSO), 3 wells of cells treated with the reference compound 78c at a final concentration of 50 nM and 2 wells containing only PBS (used as a background value).
The reaction was started by adding nicotinamide 1,N^6-etheno-adenine dinucleotide (Sigma Aldrich) to reach a final concentration of 80 µM. The samples were excited at 321-15 nm, and the emission of fluorescence was measured at 410-20 nm at 37° C. every minute for 1 hr in a Clariostar® microplate reader (BMG LABTECH). NAD+ hydrolase activity was calculated as the slope of the linear portion of the fluorescence-time curve using the MARS data analysis software (BMG LABTECH). The data were uploaded in the Collaborative Drug Design (CDD) Software and for each compound the IC50 was calculated by the software. Each compound was tested in 3 independent experiments on 3 separate days to establish the reproducibility of the results. For each plate, the z-factor was also calculated as a plate quality using the CDD software.

[2] = target: T2, recombinant mouse CD38 Protein (Mus musculus, UniProt P56528); assay: Fluorescence-based NAD+ hydrolase activity assay with mouse recombinant CD38 protein (Assay 5); type: biochemical; conditions: read-out: Assay 5 Arithmetic mean IC50
T2 construct: purchased R&D System
T2 sequence (P56528 1-304): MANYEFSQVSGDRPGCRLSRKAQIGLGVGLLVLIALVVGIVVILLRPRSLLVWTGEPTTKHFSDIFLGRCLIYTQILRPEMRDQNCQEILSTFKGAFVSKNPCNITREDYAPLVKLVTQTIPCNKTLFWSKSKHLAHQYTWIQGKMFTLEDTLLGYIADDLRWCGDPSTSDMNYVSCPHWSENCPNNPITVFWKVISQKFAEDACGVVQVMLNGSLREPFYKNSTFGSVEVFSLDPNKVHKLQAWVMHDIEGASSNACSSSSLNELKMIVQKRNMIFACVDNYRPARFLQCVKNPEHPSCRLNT
Method in brief: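 Recombinant mouse CD38 (2.5 ng/well) in 0.25 M sucrose, 40 mM Tris pH 7.4, with compound at 8 final concentrations from 400 nM to 25.6 pM; reaction started with 80 µM etheno-NAD+. Fluorescence (ex 321, em 410 nm) read each minute for 1 h at 37 °C; activity as linear slope, IC50 from 3 independent experiments.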

With `Cc1cc(C(=O)Nc2cccnc2)nc(-n2ccnc2)n1` [Compound 49, 2-(1H-imidazol-1-yl)-6-methyl-N-(pyridin-3-yl)pyrimidine-4-carboxamide] the pIC50 [1] was > 9.00 and the pIC50 [2] was > 9.00.

In the case of `Cc1cc(C(=O)Nc2ccncc2)nc(-n2ccnc2)n1` [Compound 50], the pIC50 [1] was > 9.00 and the pIC50 [2] was > 9.00.

With `Cc1cc(C(=O)Nc2ccncc2)nc(-n2ccnc2)c1` [Compound 52, 6-(1H-imidazol-1-yl)-4-methyl-N-(pyridin-4-yl)picolinamide] the pIC50 [1] was > 9.00 and the pIC50 [2] was > 9.00.

In the case of `Cc1cc(C(=O)Nc2cccnc2)nc(-n2ccnc2)c1` [Compound 53], the pIC50 [1] was > 9.00 and the pIC50 [2] was > 9.00.

With `Cc1cc(C(=O)Nc2ccc(C(N)=O)nc2)nc(-n2ccnc2)c1` [Compound 54, N-(6-carbamoylpyridin-3-yl)-6-(1H-imidazol-1-yl)-4-methylpicolinamide] the pIC50 [1] was > 9.00 and the pIC50 [2] was > 9.00.

For `Cc1cc(C(=O)Nc2ccnc(C(N)=O)c2)nc(-n2ccnc2)c1` [Compound 55], the pIC50 [1] was > 9.00 and the pIC50 [2] was > 9.00.

In the case of `CNC(=O)c1cc(NC(=O)c2cc(C)cc(-n3ccnc3)n2)ccn1` [Compound 56], the pIC50 [1] was > 9.00 and the pIC50 [2] was > 9.00.

In the case of `CNC(=O)c1ccc(NC(=O)c2cc(C)cc(-n3ccnc3)n2)cn1` [Compound 57], the pIC50 [1] was > 9.00 and the pIC50 [2] was > 9.00.

`Cc1ccc(-n2ccnc2)nc1C(=O)Nc1cccnc1` [Compound 59, 6-(1H-imidazol-1-yl)-3-methyl-N-(pyridin-3-yl)picolinamide] showed a pIC50 [1] of 7.30 to 9.00 and a pIC50 [2] of 7.30 to 9.00.

For `O=C(Nc1cccnc1)c1ccc(F)c(-n2ccnc2)n1` [Compound 61], the pIC50 [1] was 7.30 to 9.00 and the pIC50 [2] was 7.30 to 9.00.

`O=C(Nc1cccnc1)c1nc(-n2ccnc2)ccc1F` [Compound 62] was tested, and the pIC50 [1] was 7.30 to 9.00 and the pIC50 [2] was 7.30 to 9.00.

`Nc1cc(C(=O)Nc2cccnc2)nc(-n2ccnc2)c1` [Compound 67] was tested, and the pIC50 [1] was > 9.00 and the pIC50 [2] was 7.30 to 9.00.
